What all share (type): cell-based
The subject of experiment [1] is HeLa. Description: MTT cytotoxicity assay, HeLa. Particulars: Homo sapiens, 48 h, mean ± SD, three independent experiments. How it is done: (§1) The in vitro cytotoxic potency of DHAA acyl-thiourea derivatives 8a–8o and 9a–9o were evaluated by 3-(4,5-dimethylthiazol-2-yl)-2,5-diphenyltetrazolium bromide (MTT) assay against HeLa, SK-OV-3 and MGC-803 tumor cell lines, with 5-FU as the positive control.
(§2) General procedure for cytotoxic evaluation in vitro: HeLa, HepG2, SK-OV-3 and MGC-803 cells were seeded into 96-well microculture plates and allowed to adhere for 24 h, respectively. After cells were exposed to compounds at concentrations from 100 to 0.01 μM for 48 h, medium was aspirated and replenished with complete medium. IC50 was evaluated by MTT tetrazolium dye assay. Each experiment was performed three times; Statistical analysis: All statistical analysis was performed with SPSS Version 10 (SPSS, Chicago, IL, USA). Data was analyzed by one-way ANOVA. Mean separations were performed using the least significant difference method. Each experiment was replicated thrice, and all experiments yielded similar results. Measurements from all the replicates were combined, and treatment effects were analyzed.
For orientation: Formazan colour is commonly taken as a measure of viable cells.

Experiment [2] has as its system SK-OV-3. As to the kind of experiment: MTT cytotoxicity assay, SK-OV-3. Particulars: Homo sapiens, 48 h, mean ± SD, three independent experiments. The method, then: as §1, §2
Experiment [3] deals with MGC-803. As to the kind of experiment: MTT cytotoxicity assay, MGC-803. Conditions: Homo sapiens, 48 h, mean ± SD, three independent experiments. How it is done: as §1, §2
Experiment [4] deals with HL-7702. Description: MTT cytotoxicity assay, HL-7702 normal cells. Particulars: L02, 48 h, normal human cells, mean ± SD, three independent experiments. How it is done: [The source words this procedure for another cell line and reports this cell line under the same test.] as §1, §2

The IC50 is the point on the concentration scale where inhibition reaches its midpoint. Lower therefore signals greater potency.

In the case of `O=c1[nH]cc(F)c(=O)[nH]1` [Compound 5-FU, 5-fluorouracil, reference compound], the IC50 worked out at 36.6 ± 1.55 µM in experiment [1], 30.2 ± 1.13 µM in experiment [2] and 34.9 ± 1.75 µM in experiment [3].
For the molecule `CC(C)c1ccc2c(c1)CCC1[C@](C)(C(=O)NC(=S)N[C@H](C)C(=O)Nc3ccccc3)CCC[C@]21C` (stereo partly drawn) [Compound 8a, (1R,4aS)-7-Isopropyl-1,4a-dimethyl-N-(((R)-1-oxo-1-(phenylamino)propan-2-yl)carbamothioyl)-1,2,3,4,4a,9,10,10a-octahydrophenanthrene-1-carboxamide], the half-inhibitory concentration (IC50) in experiment [1] was 31.1 ± 2.13 µM; in experiment [2], 26.5 ± 2.53 µM; in experiment [3] it was 28.5 ± 1.79 µM; in experiment [4], 47.6 ± 2.43 µM.
For `Cc1ccccc1NC(=O)[C@@H](C)NC(=S)NC(=O)[C@]1(C)CCC[C@]2(C)c3ccc(C(C)C)cc3CCC12` (stereo partly drawn) [Compound 8b, (1R,4aS)-7-Isopropyl-1,4a-dimethyl-N-(((R)-1-oxo-1-(o-tolylamino)propan-2-yl)carbamothioyl)-1,2,3,4,4a,9,10,10a-octahydrophenanthrene-1-carboxamide] the same measures were 29.2 ± 2.43 µM, 42.8 ± 1.42 µM, 19.2 ± 1.66 µM and 52.5 ± 1.25 µM.
For `Cc1ccc(NC(=O)[C@@H](C)NC(=S)NC(=O)[C@]2(C)CCC[C@]3(C)c4ccc(C(C)C)cc4CCC23)cc1` (stereo partly drawn) [Compound 8c, (1R,4aS)-7-Isopropyl-1,4a-dimethyl-N-(((R)-1-oxo-1-(p-tolylamino)propan-2-yl)carbamothioyl)-1,2,3,4,4a,9,10,10a-octahydrophenanthrene-1-carboxamide] the same measures were 38.7 ± 3.65 µM, 50.9 ± 4.11 µM, 24.9 ± 1.64 µM and 61.7 ± 3.41 µM.
As to `CC(C)c1ccc2c(c1)CCC1[C@](C)(C(=O)NC(=S)N[C@H](C)C(=O)Nc3ccccc3Cl)CCC[C@]21C` (stereo partly drawn) [Compound 8d, (1R,4aS)-N-(((R)-1-((2-Chlorophenyl)amino)-1-oxopropan-2-yl)carbamothioyl)-7-isopropyl-1,4a-dimethyl-1,2,3,4,4a,9,10,10a-octahydrophenanthrene-1-carboxamide], the IC50 in experiment [1] came out at 19.7 ± 1.23 µM; in experiment [2] it was 48.3 ± 4.21 µM; in experiment [3] it was 20.6 ± 1.57 µM; in experiment [4], 69.4 ± 4.23 µM.
Turning to `CC(C)c1ccc2c(c1)CCC1[C@](C)(C(=O)NC(=S)N[C@H](C)C(=O)Nc3ccc(Cl)cc3)CCC[C@]21C` (stereo partly drawn) [Compound 8e, (1R,4aS)-N-(((R)-1-((4-Chlorophenyl)amino)-1-oxopropan-2-yl)carbamothioyl)-7-isopropyl-1,4a-dimethyl-1,2,3,4,4a,9,10,10a-octahydrophenanthrene-1-carboxamide], the IC50 was 36.1 ± 3.31 µM in experiment [1], 36.1 ± 3.28 µM in experiment [2], 21.7 ± 1.69 µM in experiment [3] and 57.7 ± 3.66 µM in experiment [4].
With `COc1ccccc1NC(=O)[C@@H](C)NC(=S)NC(=O)[C@]1(C)CCC[C@]2(C)c3ccc(C(C)C)cc3CCC12` (stereo partly drawn) [Compound 8f, (1R,4aS)-7-Isopropyl-N-(((R)-1-((2-methoxyphenyl)amino)-1-oxopropan-2-yl)carbamothioyl)-1,4a-dimethyl-1,2,3,4,4a,9,10,10a-octahydrophenanthrene-1-carboxamide], the IC50 in experiment [1] amounted to 28.1 ± 2.11 µM; in experiment [2] it was 23 ± 3.01 µM; in experiment [3] it was 17.9 ± 1.73 µM; in experiment [4], 44.7 ± 3.34 µM.
On to `COc1ccc(NC(=O)[C@@H](C)NC(=S)NC(=O)[C@]2(C)CCC[C@]3(C)c4ccc(C(C)C)cc4CCC23)cc1` (stereo partly drawn) [Compound 8g, (1R,4aS)-7-Isopropyl-N-(((R)-1-((4-methoxyphenyl)amino)-1-oxopropan-2-yl)carbamothioyl)-1,4a-dimethyl-1,2,3,4,4a,9,10,10a-octahydrophenanthrene-1-carboxamide], for which the IC50 in experiment [1] was 27.4 ± 2.43 µM; in experiment [2], 26.8 ± 2.47 µM; in experiment [3] it was 18.6 ± 1.72 µM; in experiment [4], 43.6 ± 2.43 µM.
`CC(C)c1ccc2c(c1)CCC1[C@](C)(C(=O)NC(=S)N[C@H](C)C(=O)Nc3ccccc3F)CCC[C@]21C` (stereo partly drawn) [Compound 8h, (1R,4aS)-N-(((R)-1-((2-Fluorophenyl)amino)-1-oxopropan-2-yl)carbamothioyl)-7-isopropyl-1,4a-dimethyl-1,2,3,4,4a,9,10,10a-octahydrophenanthrene-1-carboxamide]: the IC50 in experiment [1] was found to be 23.3 ± 1.55 µM; in experiment [2], 31.8 ± 2.36 µM; in experiment [3] it was 26.1 ± 2.37 µM; in experiment [4], 53.5 ± 2.35 µM.
Consider `CC(C)c1ccc2c(c1)CCC1[C@](C)(C(=O)NC(=S)N[C@H](C)C(=O)Nc3ccc(F)cc3)CCC[C@]21C` (stereo partly drawn) [Compound 8i, (1R,4aS)-N-(((R)-1-((4-Fluorophenyl)amino)-1-oxopropan-2-yl)carbamothioyl)-7-isopropyl-1,4a-dimethyl-1,2,3,4,4a,9,10,10a-octahydrophenanthrene-1-carboxamide], for which the IC50 in experiment [1] was 30.2 ± 2.55 µM; in experiment [2], 32.5 ± 2.64 µM; in experiment [3], 29.4 ± 2.77 µM; in experiment [4], 54.5 ± 2.34 µM.
In the same order, the values of `CC(C)c1ccc2c(c1)CCC1[C@](C)(C(=O)NC(=S)N[C@H](C)C(=O)Nc3ccccc3Br)CCC[C@]21C` (stereo partly drawn) [Compound 8j, (1R,4aS)-N-(((R)-1-((2-Bromophenyl)amino)-1-oxopropan-2-yl)carbamothioyl)-7-isopropyl-1,4a-dimethyl-1,2,3,4,4a,9,10,10a-octahydrophenanthrene-1-carboxamide] are 22.8 ± 1.55 µM, 39.1 ± 3.56 µM, 27.9 ± 3.26 µM and 59.6 ± 3.54 µM.
In the case of `CC(C)c1ccc2c(c1)CCC1[C@](C)(C(=O)NC(=S)N[C@H](C)C(=O)Nc3ccc(Br)cc3)CCC[C@]21C` (stereo partly drawn) [Compound 8k, (1R,4aS)-N-(((R)-1-((4-Bromophenyl)amino)-1-oxopropan-2-yl)carbamothioyl)-7-isopropyl-1,4a-dimethyl-1,2,3,4,4a,9,10,10a-octahydrophenanthrene-1-carboxamide], the half-maximal inhibitory concentration (IC50) is 19 ± 1.46 µM in experiment [1], 40.8 ± 3.57 µM in experiment [2], 30 ± 1.24 µM in experiment [3] and 54.6 ± 3.65 µM in experiment [4].
For `Cc1cc(C)cc(NC(=O)[C@@H](C)NC(=S)NC(=O)[C@]2(C)CCC[C@]3(C)c4ccc(C(C)C)cc4CCC23)c1` (stereo partly drawn) [Compound 8l, (1R,4aS)-N-(((R)-1-((3,5-Dimethylphenyl)amino)-1-oxopropan-2-yl)carbamothioyl)-7-isopropyl-1,4a-dimethyl-1,2,3,4,4a,9,10,10a-octahydrophenanthrene-1-carboxamide] the same measures were 18.6 ± 1.24 µM, 33 ± 2.59 µM, 13.9 ± 1.32 µM and 55.3 ± 2.65 µM.
Turning to `CC(C)c1ccc2c(c1)CCC1[C@](C)(C(=O)NC(=S)N[C@H](C)C(=O)Nc3cccc4ccccc34)CCC[C@]21C` (stereo partly drawn) [Compound 8m, (1R,4aS)-7-Isopropyl-1,4a-dimethyl-N-(((R)-1-(naphthalen-1-ylamino)-1-oxopropan-2-yl)carbamothioyl)-1,2,3,4,4a,9,10,10a-octahydrophenanthrene-1-carboxamide], the IC50 in experiment [1] is 46.6 ± 4.77 µM; in experiment [2], 49.4 ± 4.64 µM; in experiment [3], 36.5 ± 3.24 µM; in experiment [4] it was 59.5 ± 4.65 µM.
As to `CC(C)c1ccc2c(c1)CCC1[C@](C)(C(=O)NC(=S)N[C@H](C)C(=O)Nc3ccccn3)CCC[C@]21C` (stereo partly drawn) [Compound 8n, (1R,4aS)-7-Isopropyl-1,4a-dimethyl-N-(((R)-1-oxo-1-(pyridin-2-ylamino)propan-2-yl)carbamothioyl)-1,2,3,4,4a,9,10,10a-octahydrophenanthrene-1-carboxamide], the IC50 came out at 14.3 ± 1.33 µM in experiment [1], 25.2 ± 2.43 µM in experiment [2], 19.3 ± 1.32 µM in experiment [3] and 48.8 ± 2.44 µM in experiment [4].
`COc1cc(NC(=O)[C@@H](C)NC(=S)NC(=O)[C@]2(C)CCC[C@]3(C)c4ccc(C(C)C)cc4CCC23)cc(OC)c1OC` (stereo partly drawn) [Compound 8o, (1R,4aS)-7-Isopropyl-1,4a-dimethyl-N-(((R)-1-oxo-1-((3,4,5-trimethoxyphenyl)amino)propan-2-yl)carbamothioyl)-1,2,3,4,4a,9,10,10a-octahydrophenanthrene-1-carboxamide]: the IC50 in experiment [1] came out at 18.1 ± 1.23 µM; in experiment [2], 29.6 ± 2.67 µM; in experiment [3], 22.7 ± 1.77 µM; in experiment [4], 49.2 ± 2.65 µM.
For `CC(C)c1ccc2c(c1)CCC1[C@](C)(C(=O)NC(=S)N[C@H](Cc3ccccc3)C(=O)Nc3ccccc3)CCC[C@]21C` (stereo partly drawn) [Compound 9a, (1R,4aS)-7-Isopropyl-1,4a-dimethyl-N-(((R)-1-oxo-3-phenyl-1-(phenylamino)propan-2-yl)carbamothioyl)-1,2,3,4,4a,9,10,10a-octahydrophenanthrene-1-carboxamide] the same measures were 25.7 ± 2.23 µM, 17 ± 1.13 µM, 26.6 ± 3.25 µM and 37.5 ± 1.44 µM.
In the case of `Cc1ccccc1NC(=O)[C@@H](Cc1ccccc1)NC(=S)NC(=O)[C@]1(C)CCC[C@]2(C)c3ccc(C(C)C)cc3CCC12` (stereo partly drawn) [Compound 9b, (1R,4aS)-7-Isopropyl-1,4a-dimethyl-N-(((R)-1-oxo-3-phenyl-1-(o-tolylamino)propan-2-yl)carbamothioyl)-1,2,3,4,4a,9,10,10a-octahydrophenanthrene-1-carboxamide], the IC50 in experiment [1] worked out at 17.7 ± 1.34 µM; in experiment [2], 18.5 ± 1.44 µM; in experiment [3], 14.1 ± 1.12 µM; in experiment [4], 38.6 ± 1.65 µM.
For `CC(C)c1ccc2c(c1)CC[C@H]1[C@](C)(C(=O)O)CCC[C@]21C` [DHA, dehydroabietic acid], the IC50 is 30.4 ± 3.45 µM in experiment [1], 87.5 ± 4.12 µM in experiment [2] and over 100 µM in experiment [3].

The values above are taken from article PMC4519859, “Synthesis and Biological Evaluation of Novel Dehydroabietic Acid Derivatives Conjugated with Acyl-Thiourea Peptide Moiety as Antitumor Agents” (International Journal of Molecular Sciences, 2015).
